Where two headings read alike, the source gives them in different places.
Key:
[1] = Young's Modulus of hydrogels with radical propagators; type: physicochemical; conditions: propagator at 10 uL/mL in G5(80) [5% GelMA, 80% DoM], gelled
Procedure: (§1) Each of the three propagators (NVC, NVP, EGDA) were combined with G5(80) [5% GelMA, 80% DoM] at 10 uL/mL propagator concentration, and then gelled. Average Young's Modulus (kPa) for resulting hydrogels were as follows: EGDA [7.2494 kPa]; NVP [6.4995 kPa]; NVC [3.4744 kPa]. NVP and EGDA were also tested for a minimum concentration in G5 (10) and G5(80) which would still allow for hydrogel formation (1 minute crosslinking at ˜0.43 W). Minimum propagator concentrations for hydrogel formation were as follows: G5 (10) [NVP—5 uL/mL; EGDA—1.5 uL/mL]; G5 (80) [NVP—0.3 uL/mL; EGDA—0.1 uL/mL]

[2] = Minimum propagator concentration for hydrogel formation; type: physicochemical; conditions: 1 minute crosslinking at ˜0.43 W
Procedure: as §1

RPE cells = experiment: Cytotoxicity studies of propagators with RPE cells
From the text: Cytotoxicity studies were also completed with RPE cells for: NVC, NVP, EGDA, and phenylacetyl bromide (BAP), with 10% DMSO as a control.

| Average Young's Modulus [1] | Minimum propagator concentration for hydrogel formation ([2]; in G5 (10)) | Minimum propagator concentration for hydrogel formation ([2]; in G5 (80)) | SMILES | Cell viability (cytotoxicity) (RPE cells) | Cell viability (cytotoxicity) (RPE cells; after 18 hours of cell incubation, RPE cells, FIG. 19) |
| --- | --- | --- | --- | --- | --- |
| 6.4995 kPa | 5 uL/mL | 0.3 uL/mL | C=CN1CCCC1=O [NVP, N-Vinylpyrrolidone] | higher average cell viability than NVC | – |
| 7.2494 kPa | 1.5 uL/mL | 0.1 uL/mL | C=CC(=O)OCCOC(=O)C=C [EGDA, Ethylene Glycol Diacrylate] | low cell viability | – |
| – | – | – | O=C(Br)Cc1ccccc1 [BAP, phenylacetyl bromide] | – | higher average cell viability than NVC |
| 3.4744 kPa | – | – | C=CN1CCCCCC1=O [NVC, N-vinylcaprolactam] | – | – |

Reference: US20250256007A1, “GELMA POLYMER COMPOSITIONS COMPRISING CELLS” (GelMEDIX, Inc., priority 2022, published 2025)
